“And” between values parts separate entries of the source, which are not always exact repeats. Identical values can stand only once. Where no end group is shown, it is not given here.
Columns and labels:
[1] = test system: isolated rat islet cultures; experiment: Glucagon levels secreted from isolated rat islet cultures, medium plus NDX-90 vs medium alone; type: cell-based; settings: for Glucagon level (pg/ml) Medium plus NDX-90: NDX-90 1 μg/ml, 11 mmol/L glucose; for Percentage reduction of glucagon secretion: vs medium alone
Procedure: Isolated islets were suspended in RPMI 1640 containing 11 mmol/L (200 mg/dL) glucose and 10% FCS. The glucose concentration simulates a diabetic environment. NDX-90 was dissolved in the culture medium and added to the appropriate wells at a final concentration of 1 μg/ml. After the specified incubation times, samples were removed for glucagon measurements using Quantikine ELISA Immunoassay (R&D Systems).
The inventor measured glucagon levels secreted from isolated rat islet cultures, to determine whether NDX-90 was capable of reducing glucagon levels.

[2] = Fasting plasma glucagon in subjects with Type 2 diabetes treated with NDX-90 peptide; type: in vivo, human
Source text: The inventor then measured the effect of NDX-90 peptide treatment over several months on fasting plasma glucagon levels in subjects with Type 2 diabetes.

[3] = ELISA binding of NDX-90 peptide to cardiolipin-coated microtitre plate
Source text: Each mean and standard deviation is for three observations.

[4] = test system: buccal tissue culture inserts; experiment: Buccal tissue permeability (cell permeation, HPLC peak area of supernatant); type: in vitro ADME
Procedure: Buccal tissue culture inserts were transferred from the original tissue culture 24-well plates (maintained at 4° C. in sealed bags containing 5% CO2) under sterile conditions into wells of a fresh 24-well plate containing 1.0 ml serum free medium pre-warmed to 37° C. The plate was incubated in a humidified incubator at 37° C. in a 5% CO2 atmosphere for one hour as a pre-equilibration procedure prior to dosing. After removal from the incubator, any culture medium over the surface of the tissue was carefully removed and replaced with 40 μL of appropriately diluted peptide solution in serum free culture medium. The plate was incubated for further 30 minutes at 37° C. in a 5% CO2 atmosphere. The plate was removed from the incubator and supernatant samples were taken and analysed by HPLC. The main peak areas of the supernatants were compared to those of the pre-incubation stock samples.
The inventor next measured buccal tissue permeability of NDX-90 peptide, to determine its uptake.

[5] = test system: soluble ACE2; experiment: Soluble ACE2 ELISA in cultures of human islet cells from Type 2 diabetes tissue donors; type: cell-based; settings: for % reduction soluble ACE2 100-(T/Cx100): vs control cultures
Procedure: The inventor next measured the effect of NDX-90 peptide on soluble ACE2 levels in cultures of human islet cells from Type 2 diabetes tissue donors. Human pancreatic islet cells were cultured in 24-well tissue culture plates. Two series of cultures were set up. NDX-90 peptide solution was added to one series and an equivalent amount of culture medium was added to the second series. Supernatant samples were removed from the test and control cultures at 4, 24 and 48 hours after addition of the treatment. Supernatant samples were removed only once from each test and control well for each time point. The samples were tested for soluble ACE2 by the use of a commercial ELISA kit according to the manufacturer's instructions.

In the case of “QQYNSYPLT (also: dimer) [NDX-90, b142 says NDX-90 is a dimer]”, the “Difference (pg/ml) medium alone vs medium plus NDX-90” value ([1]; 4 hours) is reported as 203.0 pg/mL, the “Glucagon level (pg/ml) Medium plus NDX-90” value (“Glucagon level” for short) ([1]; 4 hours) is reported as 419.3 ± 2.5 pg/mL and the “Percentage reduction of glucagon secretion” value (“Percentage reduction” for short) ([1]; 4 hours) is reported as 32% and 32.4%. For the same sequence, the “Difference (pg/ml) medium alone vs medium plus NDX-90” value ([1]; 24 hours) was 102.9 pg/mL, the “Glucagon level” value ([1]; 24 hours) was 149.6 ± 6.7 pg/mL and the “Percentage reduction” value ([1]; 24 hours) was 40.9%. For the same sequence, the “Glucagon level” value ([1]; 48 hours) was 63.4 ± 1.3 pg/mL, the “Percentage reduction” value ([1]; 48 hours) was 0% and the “Improvement in fasting glucagon towards normality” value ([2]; 9.61 pg/ml relative to literature excess of 12.2 pg/ml in Type 2 diabetes vs nondiabetic controls) was 78.8%. For the same sequence, the “Difference baseline vs treated fasting plasma glucagon” value ([2]; day 1 vs mean of days 43, 99 and 113, P = 0.009, listed as NDX-90 peptide) was 9.61 pg/mL, the “Baseline ± sd fasting plasma glucagon” value ([2]; mean baseline on day 1, n = 23, Type 2 diabetes) was 103 ± 38.3 pg/mL and the “Treated ± sd fasting plasma glucagon” value ([2]; mean of measurements on days 43, 99 and 113, n = 23, Type 2 diabetes) was 93.47 ± 32.3 pg/mL. The “Binding to cardiolipin” value [3] was “has the capacity to bind to cardiolipin”, the “Ratio Test/Control (cardiolipin / alcohol optical density)” value [3] was 2.23 and the “Optical density reading in ELISA, cardiolipin-coated plate” value ([3]; mean and standard deviation for three observations) was 0.254 ± 0.012. For the same sequence, the “Transmissibility across / uptake by buccal tissue” value [4] was “efficient uptake”, the Transmissibility % ([4]; Table 5 screening, 30 minutes) was 94.1% and the “Peak Area by HPLC of Peptides in solution Pre-overlay” value ([4]; Table 5 screening, stock before incubation) was 4142. For the same sequence, the “Peak Area by HPLC of Peptides in solution Post-overlay” value ([4]; Table 5 screening, supernatant after 30 minutes at 37° C.) was 243, the “Peak Area by HPLC R1” value ([4]; Table 6, replicate culture 1) was 276 and the “Transmissibility T % (R1)” value ([4]; Table 6, replicate culture 1) was 93.3%. The “Peak Area by HPLC R3” value ([4]; Table 6, replicate culture 3) was 0, the “Transmissibility T % (R3)” value ([4]; Table 6, replicate culture 3) was 100% and the “Peak Area by HPLC Pre-overlay” value ([4]; Table 6 triplicate cultures, stock) was 4142. The “% reduction soluble ACE2 100-(T/Cx100)” value ([5]; 4 hours) was 5.3%, the “% reduction soluble ACE2 100-(T/Cx100)” value ([5]; 4 hours, listed as NDX-90 Peptide) was 5.3% and the “% reduction soluble ACE2 100-(T/Cx100)” value ([5]; 24 hours) was 6.25%. The “% reduction soluble ACE2 100-(T/Cx100)” value ([5]; 24 hours, listed as NDX-90 Peptide) was 6.25% and the “Reduction of soluble ACE2” value ([5]; 48 hours) was “No further reduction”.

From patent US20240016881A1, “Coronavirus Therapy” (priority 2020, published 2024)
